Measured values reported in ChEMBL document CHEMBL4651402, “Screening of ~5500 FDA-approved drugs and clinical candidates for anti-SARS-CoV-2 activity” (2021).

Tests used:
SARS-CoV-2 [1] = assay: microbe, parasite or virus in culture; format: functional, organism-based, Chlorocebus sabaeus, Vero C1008; conditions: Severe acute respiratory syndrome coronavirus 2, Vero C1008, 48 h
SARS-CoV-2 [2] = assay: microbe, parasite or virus in culture; conditions: Severe acute respiratory syndrome coronavirus 2, Vero C1008, 48 h
in vitro = conditions: chlorocebus sabaeus
[3] = Vero E6 (Vero C1008) cells, CC50
[4] = Vero E6 (Vero C1008) cells, pCC50

## CCC1CN2CCC1CC2C(O)c1ccnc2ccc(OCCC(C)C)cc12 (stereo not given)
SARS-CoV-2 [1]; read-out: IC50
  IC50: > 100 µM
SARS-CoV-2 [1]; read-out: pIC50 (converted)
  IC50: > 100 µM
SARS-CoV-2 [2]
  IC50: > 100 µM
SARS-CoV-2 [2]; read-out: pIC50 (converted)
  IC50: > 100 µM
In vitro; [3]
  CC50 at 48 h: 11.4 µM
In vitro; [4]
  CC50 at 48 h: 11.2 µM

## Cc1nc2ccccn2c(=O)c1CCN1CCC(=C(c2ccc(F)cc2)c2ccc(F)cc2)CC1 [SEGANSERIN]
SARS-CoV-2 [1]; read-out: IC50
  IC50: > 100 µM
SARS-CoV-2 [1]; read-out: pIC50 (converted)
  IC50: > 100 µM
SARS-CoV-2 [2]
  IC50: 7.59 µM
SARS-CoV-2 [2]; read-out: pIC50 (converted)
  IC50: 7.59 µM
In vitro; [3]
  CC50 at 48 h: 10.2 µM
In vitro; [4]
  CC50 at 48 h: 10.2 µM

## CN1CCC[C@@H](CN2c3ccccc3Sc3ccccc32)C1
SARS-CoV-2 [1]; read-out: IC50
  IC50: > 100 µM
SARS-CoV-2 [1]; read-out: pIC50 (converted)
  IC50: > 100 µM
SARS-CoV-2 [2]
  IC50: > 20 µM
SARS-CoV-2 [2]; read-out: pIC50 (converted)
  IC50: > 20 µM
In vitro; [3]
  CC50 at 48 h: 11.8 µM
In vitro; [4]
  CC50 at 48 h: 11.7 µM

## CCCCCCC(C)(C)c1cc(O)c2c(c1)OC(C)(C)C1CCC(=O)CC21 (stereo not given) [NABILONE]
SARS-CoV-2 [1]; read-out: IC50
  IC50: > 25.1 µM
SARS-CoV-2 [1]; read-out: pIC50 (converted)
  IC50: > 25.1 µM
SARS-CoV-2 [2]
  IC50: 8.91 µM
SARS-CoV-2 [2]; read-out: pIC50 (converted)
  IC50: 8.91 µM
In vitro; [3]
  CC50 at 48 h: 11.1 µM
In vitro; [4]
  CC50 at 48 h: 11 µM

## CCN(CCO)CCCC(C)Nc1ccnc2cc(Cl)ccc12 (stereo not given) [HYDROXYCHLOROQUINE]
SARS-CoV-2 [1]; read-out: IC50
  IC50: ~17.1 µM
SARS-CoV-2 [1]; read-out: pIC50 (converted)
  IC50: ~17 µM
SARS-CoV-2 [2]
  IC50: ~11.6 µM
SARS-CoV-2 [2]; read-out: pIC50 (converted)
  IC50: ~11.5 µM
In vitro; [3]
  CC50 at 48 h: 47.9 µM
In vitro; [4]
  CC50 at 48 h: 47.9 µM

## CNCCCCOc1ccccc1Cc1ccccc1 [BIFEMELANE]
SARS-CoV-2 [1]; read-out: IC50
  IC50: 20.9 µM
SARS-CoV-2 [1]; read-out: pIC50 (converted)
  IC50: 20.9 µM
SARS-CoV-2 [2]
  IC50: > 100 µM
SARS-CoV-2 [2]; read-out: pIC50 (converted)
  IC50: > 100 µM
In vitro; vero c1008, CC50
  CC50 at 48 h: 26.9 µM
In vitro; vero c1008, pCC50
  CC50 at 48 h: 26.9 µM

## O=C1c2c(O)cccc2Cc2cccc(O)c21 [ANTHRALIN]
SARS-CoV-2 [1]; read-out: IC50
  IC50: > 100 µM
SARS-CoV-2 [1]; read-out: pIC50 (converted)
  IC50: > 100 µM
SARS-CoV-2 [2]
  IC50: > 100 µM
SARS-CoV-2 [2]; read-out: pIC50 (converted)
  IC50: > 100 µM
In vitro; [3]
  CC50 at 48 h: > 100 µM
In vitro; [4]
  CC50 at 48 h: > 100 µM

## CCCOc1ccc(C(=O)CCN2CCCCC2)cc1 [PROPIPOCAINE]
SARS-CoV-2 [1]; read-out: IC50
  IC50: > 100 µM
SARS-CoV-2 [1]; read-out: pIC50 (converted)
  IC50: > 100 µM
SARS-CoV-2 [2]
  IC50: > 100 µM
SARS-CoV-2 [2]; read-out: pIC50 (converted)
  IC50: > 100 µM
In vitro; [3]
  CC50 at 48 h: 31.6 µM
In vitro; [4]
  CC50 at 48 h: 31.6 µM

## COC(=O)C1C2CC3c4[nH]c5ccccc5c4CCN3CC2CC(OC(=O)c2cc(OC)c(OC)c(OC)c2)C1OC (stereo not given)
SARS-CoV-2 [1]; read-out: IC50
  IC50: > 25.1 µM
SARS-CoV-2 [1]; read-out: pIC50 (converted)
  IC50: > 25.1 µM
SARS-CoV-2 [2]
  IC50: > 20 µM
SARS-CoV-2 [2]; read-out: pIC50 (converted)
  IC50: > 20 µM
In vitro; [3]
  CC50 at 48 h: 11.5 µM
In vitro; [4]
  CC50 at 48 h: 11.5 µM

## COC(=O)[C@H]1[C@H]2C[C@@H]3c4[nH]c5cc(OC)ccc5c4CCN3C[C@H]2C[C@@H](OC(=O)c2cc(OC)c(OC)c(OC)c2)[C@@H]1OC [RESERPINE]
SARS-CoV-2 [1]; read-out: IC50
  IC50: > 50.1 µM
SARS-CoV-2 [1]; read-out: pIC50 (converted)
  IC50: > 50.1 µM
SARS-CoV-2 [2]
  IC50: > 25.1 µM
SARS-CoV-2 [2]; read-out: pIC50 (converted)
  IC50: > 25.1 µM
In vitro; [3]
  CC50 at 48 h: ~11 µM
In vitro; [4]
  CC50 at 48 h: ~11 µM

## CCOC(=O)Nc1ccc(NCc2ccc(F)cc2)nc1N [FLUPIRTINE]
SARS-CoV-2 [1]; read-out: IC50
  IC50: > 100 µM
SARS-CoV-2 [1]; read-out: pIC50 (converted)
  IC50: > 100 µM
SARS-CoV-2 [2]
  IC50: > 100 µM
SARS-CoV-2 [2]; read-out: pIC50 (converted)
  IC50: > 100 µM
In vitro; [3]
  CC50 at 48 h: > 100 µM
In vitro; [4]
  CC50 at 48 h: > 100 µM

## CN1CCC(c2cc3cc(Cl)ccc3o2)CC1
SARS-CoV-2 [1]; read-out: IC50
  IC50: > 100 µM
SARS-CoV-2 [1]; read-out: pIC50 (converted)
  IC50: > 100 µM
SARS-CoV-2 [2]
  IC50: 17.2 µM
SARS-CoV-2 [2]; read-out: pIC50 (converted)
  IC50: 17 µM
In vitro; [3]
  CC50 at 48 h: 34.7 µM
In vitro; [4]
  CC50 at 48 h: 34.7 µM

## OC(CCCN1CCc2c(c3cc(F)ccc3n2-c2ccc(F)cc2)C1)c1ccc(F)cc1 (stereo not given) [FLUTROLINE]
SARS-CoV-2 [1]; read-out: IC50
  IC50: > 100 µM
SARS-CoV-2 [1]; read-out: pIC50 (converted)
  IC50: > 100 µM
SARS-CoV-2 [2]
  IC50: 4.68 µM
SARS-CoV-2 [2]; read-out: pIC50 (converted)
  IC50: 4.68 µM
In vitro; [3]
  CC50 at 48 h: 6.92 µM
In vitro; [4]
  CC50 at 48 h: 6.92 µM

## Clc1cnn(CCCCN2CCN(c3ncccn3)CC2)c1 [LESOPITRON]
SARS-CoV-2 [1]; read-out: IC50
  IC50: > 100 µM
SARS-CoV-2 [1]; read-out: pIC50 (converted)
  IC50: > 100 µM
SARS-CoV-2 [2]
  IC50: 2.34 µM
SARS-CoV-2 [2]; read-out: pIC50 (converted)
  IC50: 2.34 µM
In vitro; [3]
  CC50 at 48 h: > 100 µM
In vitro; [4]
  CC50 at 48 h: > 100 µM

## CCN(CCO)CCC[C@@H](C)Nc1ccnc2cc(Cl)ccc12
SARS-CoV-2 [1]; read-out: IC50
  IC50: > 50.1 µM
SARS-CoV-2 [1]; read-out: pIC50 (converted)
  IC50: > 50.1 µM
SARS-CoV-2 [2]
  IC50: 12.7 µM
SARS-CoV-2 [2]; read-out: pIC50 (converted)
  IC50: 12.6 µM
In vitro; [3]
  CC50 at 48 h: > 50.1 µM
In vitro; [4]
  CC50 at 48 h: > 50.1 µM
